Measured values reported in US20260297087A1, “Pyridoimidazolone Compounds, Preparation Thereof and Therapeutic Uses Thereof” (Sanofi, priority 2023, published 2026).

Experiments:
[1] = biological target: T1, ERK5 (Homo sapiens, UniProt Q13164); assay: Inhibition of Cellular ERK5 Activity (cell-based assay, MEF2 luciferase reporter in SN12C cells); conditions: renal cancer cell line SN12C, doxycycline-induced MEKSDD, mean where repeated
T1 construct: MEF2-luciferase reporter
Protocol: (§1) Two assays were performed to assess the ERK5 inhibitory activity of compounds of the Examples, a cell-based assay and a cell-free biochemical assay. Where repeat measurements were taken, the value reported is a mean average.
The renal cancer cell line SN12C was transduced by a lentivirus pGreenFire1 MEF2 EF1 Neo (ref TR030VA-N) from SBI using standard infection protocol. pGreenFire1 MEF2 EF1 Neo allows the expression of luciferase gene under the control of minimal promoter with MEF2 transcriptional response elements. Cells harboring the reporter construct were selected by geneticin treatment. The selected cells were then transposed by a piggyback based plasmid pCM4007 allowing the expression of constitutively activated MEKSDD under control of TREG3 promoter, a doxycycline regulated promoter. Transposed cells were selected by puromycin treatment. Upon doxycycline treatment (1p g/ml) MEKSDD was expressed. MEKSDD activates ERK5 that phosphorylates MEF2C protein. Activated MEF2C protein can bind to its transcriptional response elements. Then the luciferase is expressed. In a 96-well plate (96F nuncleon refl37101 thermofisher), 50,000 cells were inoculated in 142.5 μl of RPMI medium containing 10% fetal calf serum, 1% glutamine, and 1 μg/ml doxycycline. After 24 hours, compounds were added in 7.5 μl culture medium (with 2% DMSO to give a final concentration of 0.1%) in order to obtain the desired concentration (0.3-1000 nM). The luciferase activity was measured using the Kit Bright Glo Luminescent Cell Assay Cat E2610 (Promega) according to the manufacturer's protocol. Luminescence was determined using 0.2 second reading/well using a Tecan SPARK. IC50 values were calculated using XLFIT5 for Microsoft Excel using method 205. The IC50 values represent the concentration of compound which inhibits the measurable luminescence signal by 50% as compared to DMSO-treated control cells.

[2] = biological target: T2, ERK5 (activated catalytic domain) (Homo sapiens, UniProt Q13164); assay: Cell-Free Assay of ERK5 Inhibition (Time-Resolved FRET, 4EBP1 peptide phosphorylation); assay type: biochemical; conditions: ERK5 catalytic domain 4 nM, 1 mM ATP, 1 μM biotinylated 4EBP1 peptide, 30 min at 37° C.; mean where repeated; read-out: Cell-free assay (IC50 in nM)
T2 construct: purchased CarnaBiosciences 04-146
Protocol: as §1
An assay was performed to measure the capacity of each compound to inhibit ERK5 enzymatic activity. Compound potency was evaluated by Time-Resolved Forster Resonance Energy Transfer (FRET system). The activated catalytic domain of protein ERK5 (CarnaBiosciences #04-146) was mixed at 4 nM with varying concentrations of compound and incubated for 30 minutes at room temperature. A mixture of 1 mM ATP and 1 μM biotinylated synthetic peptide was added (Biosyntan GmbH). This synthetic peptide represents amino acids 30-52 of Eukaryotic translation initiation factor 4E-binding protein 1 (see, e.g., the sequence under accession No. NP_004086.1) biotinylated at the N-terminus. After 30 minutes at 37° C., the peptide phosphorylation by ERK5 was measured by addition of FRET reagents consisting of 12.5 μg/ml Streptavidin-XL665, 1 nM Anti-P-4EBP1 antibody and 300 ng/ml Anti-rabbit-K antibody. Following 90 minutes at room temperature fluorescent signals were read on the Pherastar FSX multimod detector from BMG Labtech (Exc° 340 nm, Em1 620 nm, Em2 665 nm). The IC50 values represent the concentration of compound which inhibits the measurable fluorescence signal by 50% as compared to the DMSO only control.

T2 sequence (Q13164 55-347 limits assumed): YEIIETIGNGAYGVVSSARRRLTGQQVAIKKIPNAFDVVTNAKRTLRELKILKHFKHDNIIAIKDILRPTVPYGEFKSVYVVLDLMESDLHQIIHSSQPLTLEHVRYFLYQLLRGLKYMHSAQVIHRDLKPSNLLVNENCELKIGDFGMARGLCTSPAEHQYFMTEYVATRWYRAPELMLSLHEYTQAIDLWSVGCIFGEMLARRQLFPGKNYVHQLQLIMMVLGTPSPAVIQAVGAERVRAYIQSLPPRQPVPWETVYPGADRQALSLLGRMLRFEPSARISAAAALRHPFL
T1 sequence (Q13164 whole entry): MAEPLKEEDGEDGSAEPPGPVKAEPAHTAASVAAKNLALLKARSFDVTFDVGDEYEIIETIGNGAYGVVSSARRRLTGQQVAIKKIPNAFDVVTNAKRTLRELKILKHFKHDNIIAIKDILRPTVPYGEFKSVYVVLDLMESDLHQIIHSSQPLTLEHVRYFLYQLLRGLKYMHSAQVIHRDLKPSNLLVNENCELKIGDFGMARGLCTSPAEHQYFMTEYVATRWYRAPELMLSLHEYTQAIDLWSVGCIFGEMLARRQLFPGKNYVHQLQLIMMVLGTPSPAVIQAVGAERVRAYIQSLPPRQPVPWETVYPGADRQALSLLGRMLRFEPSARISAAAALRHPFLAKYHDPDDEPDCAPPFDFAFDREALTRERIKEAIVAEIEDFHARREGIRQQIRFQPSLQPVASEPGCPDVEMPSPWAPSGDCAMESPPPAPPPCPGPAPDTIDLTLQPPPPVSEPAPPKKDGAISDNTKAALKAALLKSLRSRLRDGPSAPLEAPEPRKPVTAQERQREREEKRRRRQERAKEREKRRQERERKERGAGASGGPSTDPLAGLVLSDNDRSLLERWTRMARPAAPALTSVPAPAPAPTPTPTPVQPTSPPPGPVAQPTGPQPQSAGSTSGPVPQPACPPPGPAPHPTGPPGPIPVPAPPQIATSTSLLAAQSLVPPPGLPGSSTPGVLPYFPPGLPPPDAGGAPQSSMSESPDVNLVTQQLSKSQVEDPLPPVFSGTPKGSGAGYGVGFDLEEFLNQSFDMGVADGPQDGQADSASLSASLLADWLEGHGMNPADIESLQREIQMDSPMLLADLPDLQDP

Structure (SMILES) | IC50 [1] [nM] | IC50 [2] [nM]
CN1CCC(Oc2cnc3[nH]c(=O)n(C4CCN(C(=O)c5ccc(OC(F)(F)F)cc5N)CC4)c3c2)C1 (racemic) [Example 6, (rac)-1-[1-[2-amino-4-(trifluoromethoxy)benzoyl]-4-piperidyl]-6-(1-methylpyrrolidin-3-yl)oxy-3H-imidazo[4,5-b]pyridin-2-one] | 150 | 77
CN1CCC(Oc2cnc3[nH]c(=O)n(C4CCN(C(=O)c5ccc(OC(F)(F)F)cc5)CC4)c3c2)C1 (racemic) [Example 9, (rac)-6-(1-methylpyrrolidin-3-yl)oxy-1-[1-[4-(trifluoromethoxy)benzoyl]-4-piperidyl]-3H-imidazo[4,5-b]pyridin-2-one] | 413 | 287
O=C(c1ccc(OC(F)(F)F)cc1)N1CCC(n2c(=O)[nH]c3ncc(C4CCOC4)cc32)CC1 (racemic) [Example 15, (rac)-6-Tetrahydrofuran-3-yl-1-[1-[4-(trifluoromethoxy)benzoyl]-4-piperidyl]-3H-imidazo[4,5-b]pyridin-2-one] | 282 | 203
Nc1cc(OC(F)(F)F)ccc1C(=O)N1CCC(n2c(=O)[nH]c3ncc(C4CCOC4)cc32)CC1 (racemic) [Example 16, (rac)-1-[1-[2-Amino-4-(trifluoromethoxy)benzoyl]-4-piperidyl]-6-tetrahydrofuran-3-yl-3H-imidazo[4,5-b]pyridin-2-one] | 138 | 85
Nc1cc(OC(F)(F)F)ccc1C(=O)N1CCC(n2c(=O)[nH]c3ncc(C4CCNC(=O)C4)cc32)CC1 (racemic) [Example 22, (rac)-1-[1-[2-amino-4-(trifluoromethoxy)benzoyl]-4-piperidyl]-6-(2-oxo-4-piperidyl)-3H-imidazo[4,5-b]pyridin-2-one] | 140 | 684
Nc1cc(OC(F)(F)F)ccc1C(=O)N1CCC(n2c(=O)[nH]c3ncc(CC4CCOC4)cc32)CC1 (racemic) [Example 23, (rac)-1-[1-[2-amino-4-(trifluoromethoxy)benzoyl]-4-piperidyl]-6-(tetrahydrofuran-3-ylmethyl)-3H-imidazo[4,5-b]pyridin-2-one] | 184 | 86
Nc1cc(OC(F)(F)F)ccc1C(=O)N1CCC(n2c(=O)[nH]c3ncc(C4CCCO4)cc32)CC1 (racemic) [Example 25, (rac)-1-[1-[2-amino-4-(trifluoromethoxy)benzoyl]-4-piperidyl]-6-tetrahydrofuran-2-yl-3H-imidazo[4,5-b]pyridin-2-one] | 57 | 377
Nc1cc(OC(F)(F)F)ccc1C(=O)N1CCC(n2c(=O)[nH]c3ncc(C45CCNCC4C5)cc32)CC1 (racemic) [Example 28, (rac)-1-[1-[2-amino-4-(trifluoromethoxy)benzoyl]-4-piperidyl]-6-(3-azabicyclo[4.1.0]heptan-6-yl)-3H-imidazo[4,5-b]pyridin-2-one, 2,2,2-trifluoroacetic acid] | – | 533
Nc1cc(OC(F)(F)F)ccc1C(=O)N1CCC(n2c(=O)[nH]c3ncc(C45CCOCC4C5)cc32)CC1 (racemic) [Example 31, (rac)-1-[1-[2-amino-4-(trifluoromethoxy)benzoyl]-4-piperidyl]-6-(3-oxabicyclo[4.1.0]heptan-6-yl)-3H-imidazo[4,5-b]pyridin-2-one] | 170 | 288
Nc1cc(OC(F)(F)F)ccc1C(=O)N1CCC(n2c(=O)[nH]c3ncc(C45CCCCC4C5)cc32)CC1 (racemic) [Example 34, (rac)-1-[1-[2-amino-4-(trifluoromethoxy)benzoyl]-4-piperidyl]-6-norcaran-1-yl-3H-imidazo[4,5-b]pyridin-2-one] | 217 | 974
Nc1cc(OC(F)(F)F)ccc1C(=O)N1CCC(n2c(=O)[nH]c3ncc(C4CCCCO4)cc32)CC1 (racemic) [Example 38, (rac)-1-[1-[2-amino-4-(trifluoromethoxy)benzoyl]-4-piperidyl]-6-tetrahydropyran-2-yl-3H-imidazo[4,5-b]pyridin-2-one] | 541 | 1470
Nc1cc(OC(F)(F)F)ccc1C(=O)N1CCC(n2c(=O)[nH]c3ncc(C4CCCOC4)cc32)CC1 (racemic) [Example 40, (rac)-1-[1-[2-amino-4-(trifluoromethoxy)benzoyl]-4-piperidyl]-6-tetrahydropyran-3-yl-3H-imidazo[4,5-b]pyridin-2-one] | 168 | 291
Nc1cc(S(F)(F)(F)(F)F)ccc1C(=O)N1CCC(n2c(=O)[nH]c3ncc(C4CCOCC4)cc32)C1 (racemic) [Example 49, (rac)-1-[1-[2-amino-4-(pentafluoro-λ^6-sulfanyl)benzoyl]pyrrolidin-3-yl]-6-tetrahydropyran-4-yl-3H-imidazo[4,5-b]pyridin-2-one] | 278 | 587
O=C(c1ccc(S(F)(F)(F)(F)F)cc1)N1CCC(n2c(=O)[nH]c3ncc(C4CCOCC4)cc32)C1 (racemic) [Example 50, (rac)-1-[1-[4-(pentafluoro-λ^6-sulfanyl)benzoyl]pyrrolidin-3-yl]-6-tetrahydropyran-4-yl-3H-imidazo[4,5-b]pyridin-2-one] | 361 | 1620
O=C(c1ccc(OC(F)(F)F)cc1)N1CCC(n2c(=O)[nH]c3ncc([C@@H]4CCC[C@@H](O)CC4)cc32)CC1 (racemic) [Example 61, (rac)-trans-6-(4-hydroxycycloheptyl)-1-[1-[4-(trifluoromethoxy)benzoyl]-4-piperidyl]-3H-imidazo[4,5-b]pyridin-2-one] | 202 | –
O=C(c1ccc(OC(F)(F)F)cc1)N1CCC(n2c(=O)[nH]c3ncc([C@H]4CCC[C@@H](O)CC4)cc32)CC1 (racemic) [Example 62, (rac)-cis-6-(4-hydroxycycloheptyl)-1-[1-[4-(trifluoromethoxy)benzoyl]-4-piperidyl]-3H-imidazo[4,5-b]pyridin-2-one] | 257 | –
O=C1CCCC(c2cnc3[nH]c(=O)n(C4CCN(C(=O)c5ccc(OC(F)(F)F)cc5)CC4)c3c2)CC1 (racemic) [Example 63, (rac)-6-(4-oxocycloheptyl)-1-[1-[4-(trifluoromethoxy)benzoyl]-4-piperidyl]-3H-imidazo[4,5-b]pyridine-2-one] | 254 | –
O=C(c1ccc(OC(F)(F)F)cc1)N1CCC(n2c(=O)[nH]c3ncc([C@@H]4CCCC[C@@H](O)C4)cc32)CC1 (racemic) [Example 66, (rac)-trans-6-(3-hydroxycycloheptyl)-1-[1-[4-(trifluoromethoxy)benzoyl]-4-piperidyl]-3H-imidazo[4,5-b]pyridin-2-one] | 547 | –
O=C(c1ccc(OC(F)(F)F)cc1)N1CCC(n2c(=O)[nH]c3ncc([C@H]4CCCC[C@@H](O)C4)cc32)CC1 (racemic) [Example 67, (rac)-cis-6-(3-hydroxycycloheptyl)-1-[1-[4-(trifluoromethoxy)benzoyl]-4-piperidyl]-3H-imidazo[4,5-b]pyridin-2-one] | 358 | –
O=C(c1ccc(OC(F)(F)F)cc1)N1CCC(n2c(=O)[nH]c3ncc(C4CCCC(=NO)CC4)cc32)CC1 (single isomer, unassigned; isomer 1) [Example 64, (rac)-6-[(4E/Z)-4-hydroxyiminocycloheptyl]-1-[1-[4-(trifluoromethoxy)benzoyl]-4-piperidyl]-3H-imidazo[4,5-b]pyridin-2-one, Isomer 1] | 358 | –
O=C(c1ccc(OC(F)(F)F)cc1)N1CCC(n2c(=O)[nH]c3ncc(C4CCCC(=NO)CC4)cc32)CC1 (single isomer, unassigned; isomer 2) [Example 65, (rac)-6-[(4E/Z)-4-hydroxyiminocycloheptyl]-1-[1-[4-(trifluoromethoxy)benzoyl]-4-piperidyl]-3H-imidazo[4,5-b]pyridin-2-one, Isomer 2] | 575 | –
